Experimental data as given in patent publication US20250353873A1, “COMPOUNDS AND METHODS FOR MODULATING APOE EXPRESSION” (Ionis Pharmaceuticals, Inc., priority 2024, published 2025).
Marks after values point to notes of the source that are not given here. Strand notation (5' to 3'): a small letter for the sugar, then the base; units joined by * are phosphorothioate-linked, units joined directly phosphodiester-linked; [ ] holds rarer units or linkages, { } end groups; capitals alone tell only the bases. e = 2'-O-(2-methoxyethyl) (MOE); k = constrained ethyl (cEt); [5mC] = 5-methylcytosine; d = 2'-deoxy (DNA)

Experiments:
human APOE RNA [1] = assay: Dose-dependent inhibition of human APOE RNA in HepG2 cells, electroporation, 50,000 cells per well, RT-PCR normalized to GAPDH (Example 4, Tables 8-10); format: cell-based; settings: HepG2, electroporation, 16-hour treatment
Procedure, shortened: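 HepG2 cells, 50,000 per well, electroporated with modified oligonucleotide at various concentrations. APOE RNA quantified by RT-PCR with human primer probe set RTS3073, normalized to GAPDH. Values are percent APOE RNA relative to untreated control cells.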

human APOE RNA [2] = assay: Activity in APOE C57BL/6NTac-Apoeem7250 knock-in mice, single ICV bolus, 20 weeks (Example 13); format: in vivo; settings: single ICV bolus 300 μg, 20 weeks post treatment, normalized to mouse Ppia
Experimental: Modified oligonucleotides described above were tested in the APOE C57BL/6NTac-Apoeem7250 knock-in mouse model described above.
APOE C57BL/6NTac-Apoeem7250 knock-in mice were divided into groups of 4 mice each. Each mouse received a single ICV bolus of 300 μg of modified oligonucleotide. A group of 2-4 mice received a single ICV bolus with PBS as a negative control.
Twenty weeks post treatment, mice were sacrificed and RNA was extracted from cortical brain tissue and spinal cord for quantitative real-time RT-PCR analysis of RNA expression of APOE using human primer probe set RTS3073 (described herein above). APOE RNA levels were normalized to mouse Ppia. Mouse Ppia was amplified using primer probe set m_cyclo24 (described herein above). Results are presented as percent human APOE RNA relative to the amount of human APOE RNA in PBS treated animals, (% control). Each experiment is identified in separate tables below.

1757562: mixed MOE/cEt gapmer TTGGTGAATCTTTATTAA, sugar eeeekddddddddkkeee, linkages soossssssssssooss (eT*eTeGeG*kT*dG*dA*dA*dT*d[5mC]*dT*dT*dT*kAkTeT*eA*eA) [compound 1757562]
APOE RNA (% UTC) (human APOE RNA [1]; 5 nM): 160 % UTC
APOE RNA (% UTC) (human APOE RNA [1]; 13 nM): 86 % UTC
APOE RNA (% UTC) (human APOE RNA [1]; 33 nM): 56 % UTC
APOE RNA (% UTC) (human APOE RNA [1]; 82 nM): 87 % UTC
APOE RNA (% UTC) (human APOE RNA [1]; 205 nM): 52 % UTC
APOE RNA (% UTC) (human APOE RNA [1]; 512 nM): 45 % UTC
APOE RNA (% UTC) (human APOE RNA [1]; 1,280 nM): 40 % UTC
APOE RNA (% UTC) (human APOE RNA [1]; 3,200 nM): 29 % UTC
APOE RNA (% UTC) (human APOE RNA [1]; 8,000 nM): 28 % UTC
APOE RNA (% UTC) (human APOE RNA [1]; 20,000 nM): 16 % UTC
IC50 (human APOE RNA [1]): 570 nM
APOE RNA (% control) Cortex (human APOE RNA [2]): 96 % control
APOE RNA (% control) Spinal Cord (human APOE RNA [2]): 88 % control

1757541: mixed MOE/cEt gapmer TTGGTGAATCTTTATTAA, sugar eeeekddddddddeeeee, linkages soossssssssssooss (eT*eTeGeG*kT*dG*dA*dA*dT*d[5mC]*dT*dT*dT*eAeTeT*eA*eA) [compound 1757541]
APOE RNA (% UTC) (human APOE RNA [1]; 5 nM): 104 % UTC
APOE RNA (% UTC) (human APOE RNA [1]; 13 nM): 103 % UTC
APOE RNA (% UTC) (human APOE RNA [1]; 33 nM): 100 % UTC
APOE RNA (% UTC) (human APOE RNA [1]; 82 nM): 99 % UTC
APOE RNA (% UTC) (human APOE RNA [1]; 205 nM): 91 % UTC
APOE RNA (% UTC) (human APOE RNA [1]; 512 nM): 66 % UTC
APOE RNA (% UTC) (human APOE RNA [1]; 1,280 nM): 60 % UTC
APOE RNA (% UTC) (human APOE RNA [1]; 3,200 nM): 38 % UTC
APOE RNA (% UTC) (human APOE RNA [1]; 8,000 nM): 22 % UTC
APOE RNA (% UTC) (human APOE RNA [1]; 20,000 nM): 8 % UTC
IC50 (human APOE RNA [1]): 1790 nM
APOE RNA (% control) Cortex (human APOE RNA [2]): 88 % control
APOE RNA (% control) Spinal Cord (human APOE RNA [2]): 80 % control

1757551: mixed MOE/cEt gapmer TTGGTGAATCTTTATTAA, sugar eeekkddddddddeeeee, linkages soossssssssssooss (eT*eTeGkG*kT*dG*dA*dA*dT*d[5mC]*dT*dT*dT*eAeTeT*eA*eA) [compound 1757551]
APOE RNA (% UTC) (human APOE RNA [1]; 5 nM): 91 % UTC
APOE RNA (% UTC) (human APOE RNA [1]; 13 nM): 248 % UTC
APOE RNA (% UTC) (human APOE RNA [1]; 33 nM): 88 % UTC
APOE RNA (% UTC) (human APOE RNA [1]; 82 nM): 55 % UTC
APOE RNA (% UTC) (human APOE RNA [1]; 205 nM): 52 % UTC
APOE RNA (% UTC) (human APOE RNA [1]; 512 nM): 41 % UTC
APOE RNA (% UTC) (human APOE RNA [1]; 1,280 nM): 35 % UTC
APOE RNA (% UTC) (human APOE RNA [1]; 3,200 nM): 29 % UTC
APOE RNA (% UTC) (human APOE RNA [1]; 8,000 nM): 14 % UTC
APOE RNA (% UTC) (human APOE RNA [1]; 20,000 nM): 9 % UTC
IC50 (human APOE RNA [1]): 430 nM
APOE RNA (% control) Cortex (human APOE RNA [2]): 93 % control
APOE RNA (% control) Spinal Cord (human APOE RNA [2]): 53 % control

1757565 (eA*e[5mC]eTeTkG*dG*dT*dG*dA*dA*dT*d[5mC]*dT*dT*dT*eAeTeT*eA*eA; antisense) [Compound 1757565]
APOE RNA (% UTC) (human APOE RNA [1]; 5 nM): 95 % UTC
APOE RNA (% UTC) (human APOE RNA [1]; 13 nM): 108 % UTC
APOE RNA (% UTC) (human APOE RNA [1]; 33 nM): 76 % UTC
APOE RNA (% UTC) (human APOE RNA [1]; 82 nM): 84 % UTC
APOE RNA (% UTC) (human APOE RNA [1]; 205 nM): 89 % UTC
APOE RNA (% UTC) (human APOE RNA [1]; 512 nM): 64 % UTC
APOE RNA (% UTC) (human APOE RNA [1]; 1,280 nM): 49 % UTC
APOE RNA (% UTC) (human APOE RNA [1]; 3,200 nM): 30 % UTC
APOE RNA (% UTC) (human APOE RNA [1]; 8,000 nM): 55 % UTC
APOE RNA (% UTC) (human APOE RNA [1]; 20,000 nM): 22 % UTC
IC50 (human APOE RNA [1]): 2130 nM
APOE RNA (% control) Cortex (human APOE RNA [2]): 82‡ % control
APOE RNA (% control) Spinal Cord (human APOE RNA [2]): 73‡ % control

1757564: mixed MOE/cEt gapmer TTGGTGAATCTTTATTAA, sugar eeeekddddddddkeeke, linkages soossssssssssooss (eT*eTeGeG*kT*dG*dA*dA*dT*d[5mC]*dT*dT*dT*kAeTeT*kA*eA) [compound 1757564]
APOE RNA (% UTC) (human APOE RNA [1]; 5 nM): 91 % UTC
APOE RNA (% UTC) (human APOE RNA [1]; 13 nM): 86 % UTC
APOE RNA (% UTC) (human APOE RNA [1]; 33 nM): 92 % UTC
APOE RNA (% UTC) (human APOE RNA [1]; 82 nM): 93 % UTC
APOE RNA (% UTC) (human APOE RNA [1]; 205 nM): 82 % UTC
APOE RNA (% UTC) (human APOE RNA [1]; 512 nM): 72 % UTC
APOE RNA (% UTC) (human APOE RNA [1]; 1,280 nM): 62 % UTC
APOE RNA (% UTC) (human APOE RNA [1]; 3,200 nM): 39 % UTC
APOE RNA (% UTC) (human APOE RNA [1]; 8,000 nM): 22 % UTC
APOE RNA (% UTC) (human APOE RNA [1]; 20,000 nM): 33 % UTC
IC50 (human APOE RNA [1]): 2210 nM
APOE RNA (% control) Cortex (human APOE RNA [2]): 95 % control
APOE RNA (% control) Spinal Cord (human APOE RNA [2]): 69 % control

1757554: mixed MOE/cEt gapmer TTGGTGAATCTTTATTAA, sugar kkeeeddddddddeeeee, linkages soossssssssssooss (kT*kTeGeG*eT*dG*dA*dA*dT*d[5mC]*dT*dT*dT*eAeTeT*eA*eA) [compound 1757554]
APOE RNA (% UTC) (human APOE RNA [1]; 5 nM): 91 % UTC
APOE RNA (% UTC) (human APOE RNA [1]; 13 nM): 113 % UTC
APOE RNA (% UTC) (human APOE RNA [1]; 33 nM): 101 % UTC
APOE RNA (% UTC) (human APOE RNA [1]; 82 nM): 106 % UTC
APOE RNA (% UTC) (human APOE RNA [1]; 205 nM): 89 % UTC
APOE RNA (% UTC) (human APOE RNA [1]; 512 nM): 71 % UTC
APOE RNA (% UTC) (human APOE RNA [1]; 1,280 nM): 52 % UTC
APOE RNA (% UTC) (human APOE RNA [1]; 3,200 nM): 27 % UTC
APOE RNA (% UTC) (human APOE RNA [1]; 8,000 nM): 28 % UTC
APOE RNA (% UTC) (human APOE RNA [1]; 20,000 nM): 13 % UTC
IC50 (human APOE RNA [1]): 1570 nM
APOE RNA (% control) Cortex (human APOE RNA [2]): 95 % control
APOE RNA (% control) Spinal Cord (human APOE RNA [2]): 68 % control

1757582 (eT*eTeGkGkT*dG*dA*dA*dT*d[5mC]*dT*dT*dT*dA*dT*eTeAeA*eA*e[5mC]; antisense) [Compound 1757582]
APOE RNA (% UTC) (human APOE RNA [1]; 5 nM): 87 % UTC
APOE RNA (% UTC) (human APOE RNA [1]; 13 nM): 107 % UTC
APOE RNA (% UTC) (human APOE RNA [1]; 33 nM): 72 % UTC
APOE RNA (% UTC) (human APOE RNA [1]; 82 nM): 92 % UTC
APOE RNA (% UTC) (human APOE RNA [1]; 205 nM): 70 % UTC
APOE RNA (% UTC) (human APOE RNA [1]; 512 nM): 64 % UTC
APOE RNA (% UTC) (human APOE RNA [1]; 1,280 nM): 29 % UTC
APOE RNA (% UTC) (human APOE RNA [1]; 3,200 nM): 12 % UTC
APOE RNA (% UTC) (human APOE RNA [1]; 8,000 nM): 37 % UTC
APOE RNA (% UTC) (human APOE RNA [1]; 20,000 nM): 9 % UTC
IC50 (human APOE RNA [1]): 710 nM
APOE RNA (% control) Cortex (human APOE RNA [2]): 62 % control
APOE RNA (% control) Spinal Cord (human APOE RNA [2]): 44 % control
